# Test results reported in patent publication US11446287B2, “Compounds and methods for EP300 or CBP modulation and indications therefor” (Opna Immuno-Oncology SA, priority 2019, dated 2022).
# pIC50: −log10 of the molar value.
# Target: T1, Recombinant human BRD4 containing dual bromodomains (BRD4-BD12 (1-477)) (Homo sapiens, UniProt O60885)
# T1 construct: Recombinant human BRD4 containing dual bromodomains (BRD4-BD12 (1-477)); made in house; host or cells: E. coli BL21-CodonPlus (DE3), modified pET vector
# Assay: BRD4 Alphascreen binding assay
# Experimental: BRD4 Alphascreen Binding Assay
# Binding of compounds of Formula (I) with BRD4 was assessed using Alphascreen binding assay. The inhibition of the interaction between BRD4 and its acetylated target protein was measured quantitatively using recombinant BRD4 protein, an acetylated Histone 4 peptide, and AlphaScreen™ technology. In absence of inhibition of the BRD4 protein bound to AlphaScreen™ nickel chelate acceptor beads can interact with the acetylated Histone 4 peptide which was immobilized by the AlphaScreen™ Streptavidin coated beads. This interaction brings donor and acceptor beads in proximity. The close proximity allows the singlet oxygen produced by laser excitation of the donor beads to reach the acceptor beads and generate a luminescence signal. BRD4 inhibitors result in a decrease in the proximity signal through an inhibition of the BRD4—acetylated peptide interaction.
# Recombinant human BRD4 containing dual bromodomains (BRD4-BD12 (1-477)) was prepared and purified as described in protein expression and purification session. The peptide was human Histone H41-21K5AcK8AcK12AcK16Ac-Biotin (Anaspec CA, USA).
# Protocol for BRD4 assay: All components are prepared in buffer composed of 50 mM HEPES pH 7.5, 50 mM NaCl, 0.01% BSA, 0.01% Triton X-100, 2 mM DTT. Test compounds and DMSO vehicle are diluted 1:50 in buffer and a 4 μL volume was transferred to an Alphaplate. 5.5 μL of Bromodomain protein and 5.5 μL of peptide are added to wells containing 4 μL of various concentrations of test compounds of Formula (I) or DMSO vehicle in an Alphaplate (PerkinElmer GA, USA) and incubated for 1 hour at room temperature. 5 μL donor and acceptor bead mixture was then added with final concentrations of 7.5 μg/ml. 30 minutes after bead addition, Alpha signal was read on the Envision spectrometer (λEx 680 nm, λEm 520-620 nm). Final concentrations of bromodomain proteins and peptide are as shown below.
# All data were normalized to the mean of 16 high and 16 low control wells on each plate. A four parameter curve fit of the following formula was then applied: Y=A+((B−A)/(1+((C/x)^D))) Where ‘A’ is the minimum, ‘B’ is the maximum, ‘C’ is the IC50 and ‘D’ is the Hill slope. Protein Expression and Purification
# Recombinant human BRD4 containing dual bromodomains (BRD4-BD12 (1-477)) was expressed in E. coli cells (in a modified pET vector) with an N-terminal six-His tag and purified using a combination of both IMAC (Ni-affinity) and size exclusion chromatography steps.
# Recombinant BRD4 was expressed using the E. coli strain BL21-CodonPlus (DE3) (Agilent Technologies CA, USA). Cells were grown in Terrific Broth (TB) media to an OD600 of 2.0 at 37° C. at which temperature was reduced to 18° C., protein was induced with 0.1 mM isopropyl-β-D-thiogalactopyranoside (“IPTG”) for 12-18 hours and harvested by centrifugation at 8000×g for 20 minutes. Cells were re-suspended in 40 mM Tris-HCl pH 8.0, 0.5 M NaCl, 25 mM Imidazole, 5% glycerol, 1/200 vol. Protease Inhibitor Cocktail Set III (Calbiochem), 5 mM beta-mercaptoethanol (“BME”), 0.5 mg/mL Lysozyme, and 0.5 mg/mL DNaseI, incubated on ice for 30 minutes and lysed with a cell disruptor (MicroFluidics MA, USA). The lysate was clarified by centrifugation at 20,000×g for 2 hours. The protein was captured with Ni-NTA resin (Life Technologies, USA). Contaminating proteins were washed off with 40 mM Tris-HCl pH 8.0, 0.5 M NaCl, 25 mM Imidazole, 5% glycerol, and 5 mM BME. Following 3× wash steps, protein was eluted step wise into wash buffer containing 50, 100, 150, 500 mM Imidazole. The protein was further purified using Gel Filtration column 16/60 Superdex 200 (GE Biosciences NJ, USA) in 10 mM HEPES pH 8.0, 150 mM NaCl, and 5 mM DTT. Glycerol was added to a final concentration of 12% and the protein was aliquoted and flash-frozen in liquid Nitrogen.
row,SMILES,pIC50
1,"Cc1noc(C)c1-c1cnc2c(c1)c(-c1ccc(C(=O)O)cc1OCc1ccccc1)cn2[C@@H](C)c1ccccn1 [P-0139, (S)-3-(benzyloxy)-4-(5-(3,5-dimethylisoxazol-4-yl)-1-(1-(pyridin-2-yl)ethyl)-1H-pyrrolo[2,3-b]pyridin-3-yl)benzoic acid]",3.00 to 5.10
2,"COc1ccc(C(=O)O)cc1-c1cn(C(C)c2ccccc2)c2cc(-c3c(C)noc3C)cnc12 (centres unmarked) [P-0140, 3-(6-(3,5-dimethylisoxazol-4-yl)-1-(1-phenylethyl)-1H-pyrrolo[3,2-b]pyridin-3-yl)-4-methoxybenzoic acid]",3.00 to 5.10
3,"Cc1noc(C)c1-c1cnc2c(-c3cc(C(=O)O)ccc3Cl)cn(C(C)c3ccccc3)c2c1 (centres unmarked) [P-0141, 4-chloro-3-(6-(3,5-dimethylisoxazol-4-yl)-1-(1-phenylethyl)-1H-pyrrolo[3,2-b]pyridin-3-yl)benzoic acid]",3.00 to 5.10
4,"COc1cc(C(=O)O)ccc1-c1cn([C@@H](C)c2ccccn2)c2cc(-c3c(C)noc3C)cnc12 [P-0142, (S)-4-(6-(3,5-dimethylisoxazol-4-yl)-1-(1-(pyridin-2-yl)ethyl)-1H-pyrrolo[3,2-b]pyridin-3-yl)-3-methoxybenzoic acid]",6.00 to 10.00
5,"Cc1noc(C)c1-c1cnc2c(CC3CCC3)cn(-c3ccc(O)nc3)c2c1 [P-0143, 5-(3-(cyclobutylmethyl)-6-(3,5-dimethylisoxazol-4-yl)-1H-pyrrolo[3,2-b]pyridin-1-yl)pyridin-2-ol]",3.00 to 5.10
6,"COc1cc(C(=O)O)cc(O)c1-c1cn([C@@H](C)c2ccccn2)c2ncc(-c3c(C)noc3C)cc12 [P-0144, (S)-4-(5-(3,5-dimethylisoxazol-4-yl)-1-(1-(pyridin-2-yl)ethyl)-1H-pyrrolo[2,3-b]pyridin-3-yl)-3-hydroxy-5-methoxybenzoic acid]",3.00 to 5.10
7,"Cc1noc(C)c1-c1cnc2c(c1)c(-c1ccnc(O)c1)cn2[C@@H](C)c1ccccn1 [P-0145, (S)-4-(5-(3,5-dimethylisoxazol-4-yl)-1-(1-(pyridin-2-yl)ethyl)-1H-pyrrolo[2,3-b]pyridin-3-yl)pyridin-2-ol]",3.00 to 5.10
8,"COc1cc(C(=O)O)cc(OC)c1-c1cn([C@@H](C)c2ccccn2)c2cc(-c3c(C)noc3C)cnc12 [P-0146, (S)-4-(6-(3,5-dimethylisoxazol-4-yl)-1-(1-(pyridin-2-yl)ethyl)-1H-pyrrolo[3,2-b]pyridin-3-yl)-3,5-dimethoxybenzoic acid]",3.00 to 5.10
9,"CCOc1cc(C(=O)O)cc(OCC)c1-c1cn([C@@H](C)c2ccccn2)c2ncc(-c3c(C)noc3C)cc12 [P-0147, (S)-4-(5-(3,5-dimethylisoxazol-4-yl)-1-(1-(pyridin-2-yl)ethyl)-1H-pyrrolo[2,3-b]pyridin-3-yl)-3,5-diethoxybenzoic acid]",3.00 to 5.10
10,"CC[C@@H](c1ccccn1)n1cc(-c2cc(C(=O)O)ccc2Cl)c2ncc(-c3c(C)noc3C)cc21 [P-0148, (S)-4-chloro-3-(6-(3,5-dimethylisoxazol-4-yl)-1-(1-(pyridin-2-yl)propyl)-1H-pyrrolo[3,2-b]pyridin-3-yl)benzoic acid]",5.10 to 6.00
11,"Cc1noc(C)c1-c1cc2c(cn1)c(CC1CCC1)cn2-c1c(Cl)cc(C(=O)O)cc1Cl [P-0149, 3,5-dichloro-4-(3-(cyclobutylmethyl)-6-(3,5-dimethylisoxazol-4-yl)-1H-pyrrolo[3,2-c]pyridin-1-yl)benzoic acid]",3.00 to 5.10
12,"Cc1noc(C)c1-c1cnc2c(-c3ccccc3)cn(-c3c(Cl)cc(C(=O)O)cc3Cl)c2c1 [P-0150, 3,5-dichloro-4-(6-(3,5-dimethylisoxazol-4-yl)-3-phenyl-1H-pyrrolo[3,2-b]pyridin-1-yl)benzoic acid]",5.10 to 6.00
13,"Cc1noc(C)c1-c1cnc2c(C3=CCOCC3)cn(-c3c(Cl)cc(C(=O)O)cc3Cl)c2c1 [P-0151, 3,5-dichloro-4-(3-(3,6-dihydro-2H-pyran-4-yl)-6-(3,5-dimethylisoxazol-4-yl)-1H-pyrrolo[3,2-b]pyridin-1-yl)benzoic acid]",5.10 to 6.00
14,"COc1cc(C(=O)O)cc(OCC2CC2)c1-c1cn([C@@H](C)c2ccccn2)c2ncc(-c3c(C)noc3C)cc12 [P-0152, (S)-3-(cyclopropylmethoxy)-4-(5-(3,5-dimethylisoxazol-4-yl)-1-(1-(pyridin-2-yl)ethyl)-1H-pyrrolo[2,3-b]pyridin-3-yl)-5-methoxybenzoic acid]",3.00 to 5.10
15,"COc1cc(C(=O)O)cc(OCC(F)(F)F)c1-c1cn([C@@H](C)c2ccccn2)c2ncc(-c3c(C)noc3C)cc12 [P-0153, (S)-4-(5-(3,5-dimethylisoxazol-4-yl)-1-(1-(pyridin-2-yl)ethyl)-1H-pyrrolo[2,3-b]pyridin-3-yl)-3-methoxy-5-(2,2,2-trifluoroethoxy)benzoic acid]",3.00 to 5.10
16,"Cc1noc(C)c1-c1cnc2c(-c3ccc(C(=O)O)cc3)c(C(F)(F)F)n([C@@H](C)c3ccccn3)c2c1 [P-0154, (S)-4-(6-(3,5-dimethylisoxazol-4-yl)-1-(1-(pyridin-2-yl)ethyl)-2-(trifluoromethyl)-1H-pyrrolo[3,2-b]pyridin-3-yl)benzoic acid]",6.00 to 10.00
17,"Cc1noc(C)c1-c1cnc2c(-c3ccccc3Cl)cn(C(C)(c3ccccn3)c3ccccn3)c2c1 [P-0155, 4-(3-(2-chloropheny1)-1-(1,1-di(pyridin-2-yl)ethyl)-1H-pyrrolo[3,2-b]pyridin-6-yl)-3,5-dimethylisoxazole]",6.00 to 10.00
18,"Cc1noc(C)c1-c1cnc2c(c1)c(-c1ccc(C(=O)O)cc1OC(F)(F)F)cn2C(C1CC1)C1CC1 [P-0156, 4-(1-(dicyclopropylmethyl)-5-(3,5-dimethylisoxazol-4-yl)-1H-pyrrolo[2,3-b]pyridin-3-yl)-3-(trifluoromethoxy)benzoic acid]",3.00 to 5.10
19,"Cc1noc(C)c1-c1cnc2c(c1)c(-c1ccc(C(=O)O)cc1OC(F)(F)F)cn2CC1CC(F)(F)C1 [P-0157, 4-(1-((3,3-difluorocyclobutyl)methyl)-5-(3,5-dimethylisoxazol-4-yl)-1H-pyrrolo[2,3-b]pyridin-3-yl)-3-(trifluoromethoxy)benzoic acid]",6.00 to 10.00
20,"Cc1noc(C)c1-c1cnc2c(c1)c(-c1ccc(C(=O)O)cc1OC(F)(F)F)cn2-c1ccccn1 [P-0158, 4-(5-(3,5-dimethylisoxazol-4-yl)-1-(pyridin-2-yl)-1H-pyrrolo[2,3-b]pyridin-3-yl)-3-(trifluoromethoxy)benzoic acid]",6.00 to 10.00
21,"Cc1noc(C)c1-c1cnc2c(Cc3ccccn3)cn(-c3ccc(C(=O)O)cc3OC(F)(F)F)c2c1 [P-0159, 4-(6-(3,5-dimethylisoxazol-4-yl)-3-(pyridin-2-ylmethyl)-1H-pyrrolo[3,2-b]pyridin-1-yl)-3-(trifluoromethoxy)benzoic acid]",6.00 to 10.00
22,"Cc1noc(C)c1-c1cnc2c(-c3cnn(C)c3)c(C(F)(F)F)n([C@@H](C)c3ccccn3)c2c1 [P-0160, (S)-3,5-dimethyl-4-(3-(1-methyl-1H-pyrazol-4-yl)-1-(1-(pyridin-2-yl)ethyl)-2-(trifluoromethyl)-1H-pyrrolo[3,2-b]pyridin-6-yl)isoxazole]",6.00 to 10.00
23,"Cc1noc(C)c1-c1cnc2c(-c3cccc(CC(=O)O)c3)c(C(F)(F)F)n([C@@H](C)c3ccccn3)c2c1 [P-0161, (S)-2-(3-(6-(3,5-dimethylisoxazol-4-yl)-1-(1-(pyridin-2-yl)ethyl)-2-(trifluoromethyl)-1H-pyrrolo[3,2-b]pyridin-3-yl)phenyl)acetic acid]",3.00 to 5.10
